Key:
PC-3 cell line = test: PC-3 cell proliferation assay; assay type: cell-based; settings: for IC50: Homo sapiens, PC-3 cells, read-out: inhibitory activity against PC-3 cell proliferation (IC50 range)
Description: (§1) A panel of cancer cell lines was obtained from the DCTP Tumor Repository, National Cancer Institute (Frederick, Md.) or ATCC (Rockville, Md.). Cell cultures were maintained in Hyclone RPMI 1640 medium (Logan, Utah) supplemented with 10% fetal bovine serum and 20 mM HEPES buffer, final pH 7.2, at 37° C. with a 5% CO2 atmosphere. Cultures were maintained at sub-confluent densities. Human umbilical vein endothelial cells (HUVEC) were purchased from Clonetics, a division of Cambrex (Walkersville, Md.). Cultures were established from cryopreserved stocks using Clonetics EGM-2 medium supplemented with 20 mM HEPES, final pH 7.2, at 37° C. with a 5% CO2 atmosphere.
(§2) For proliferation assays, cells were seeded with the appropriate medium into 96 well plates at 1,000-2,500 cells per well, depending on the cell line, and were incubated overnight. The following day, test compound, DMSO solution (negative control), or Actinomycin D (positive control) was added to the appropriate wells as 10× concentrated stocks prepared in phosphate buffered saline. The cell plates were then incubated for an additional 2-5 days, depending on the cell line, to allow proliferation to occur. To measure cell density, 50 μL of WST-1 solution (Roche Applied Science, Ind.) diluted 1:5 in phosphate buffered saline was added to each well, and the cells incubated for an additional 1-5 hrs., again depending on the cell line. Optical density was determined for each well at […] using a Tecan GeniosPro plate reader (RTP, NC). The percentage of cell growth was determined by comparing the cell growth in the presence of test compounds to the cells treated with DMSO vehicle (control, 100% growth) and cells treated with Actinomycin D (10 μM, 0% growth).
Immediately after the WST-1 determination, the medium was removed from the PC-3, NCI-H460 and HUVEC cell lines, and the plates stored at −80° C. Using these assay plates, relative amounts of DNA in each well were determined using the Cyquant DNA assay kit from […] (Eugene, Oreg.) following the manufacturer's directions. Results for each compound treatment were compared to DMSO vehicle control (100%) and 10 μM Actinomycin D treated cells (0%).

[1] = Oral bioavailability in rat; settings: in vivo, 10 mg/kg over 24 hours, read-out: oral bioavailability (F)
Aqueous solubility = assay type: physicochemical; settings: water; mono hydrochloride salt
[2] = tested on: HSP-90 (heat shock protein 90); test: Determination of affinity for HSP-90 (purine affinity column elution); assay type: binding; design: key: +++: very high; ++: high; +: moderate; settings: elution from purine affinity column
Description: Affinity of test compounds for HSP-90 was determined as follows: Protein mixtures obtained from a variety of organ tissues (for example: spleen, liver and lung) were reversibly bound to a purine affinity column to capture purine-binding proteins, especially HSP-90. The purine affinity column was washed several times, and then eluted with 20 μM, 100 μM, and 500 μM of test compound. Compounds of Formula I elute HP-90 in a dose-dependent manner vs. a control elution using dimethylsulfoxide. The elution profile of Formula I compounds was determined by 1-dimensional SDS polyacrylamide gel electrophoresis. Gels were stained with a fluorescent stain such as sypro ruby (a highly sensitive fluorescent protein stain that can readily detect less than 1 fmol of total protein, i.e., less than 0.04 ng for a 40 kDa protein) or silver nitrate. The gels were imaged using a standard flat bed gel imager and the amount of protein estimated by densitometry. The percent of HSP-90 protein eluted from the column at each concentration was determined and IC50 values were calculated from these estimates.

NCl/ADR-RES cell line = test: Potency against adriamycin-resistant breast cancer cell line; assay type: cell-based, human; settings: vs non-fluorinated parent analog
Description: as §1
as §2, with “The cell plates were then incubated for an additional 2-5 days, depending on the cell line, to allow proliferation to occur. To measure cell density, 50 μL of WST-1 solution (Roche Applied Science, Ind.) diluted 1:5 in phosphate buffered saline was added to each well, and the cells incubated for an additional 1-5 hrs., again depending on the cell line.” left out

[3] = tested on: MES-SA/Dx5 (MDR+) cell line; test: Potency against multi-drug resistant cell line; assay type: cell-based; settings: vs non-fluorinated parent analog
Description: as §1
as §2, with “The cell plates were then incubated for an additional 2-5 days, depending on the cell line, to allow proliferation to occur. To measure cell density, 50 μL of WST-1 solution (Roche Applied Science, Ind.) diluted 1:5 in phosphate buffered saline was added to each well, and the cells incubated for an additional 1-5 hrs., again depending on the cell line.” left out

| Structure (SMILES) | IC50 (PC-3 cell line) [µM] | relative binding affinity to HSP-90 [2] | other results |
| --- | --- | --- | --- |
| CC1(C)CC(=O)c2c(C(F)(F)F)nn(-c3ccc(C(N)=O)c(NCCO)c3)c2C1 [Example 150, 4-(6,6-dimethyl-4-oxo-3-(trifluoromethyl)-4,5,6,7-tetrahydro-1H-indazol-1-yl)-2-(2-hydroxyethylamino)benzamide] | – | – | times more potent in PC-3 cell line (PC-3 cell line; vs alkyl analogs without oxygen): 10-30 times |
| Cc1nn(-c2cc(F)c(C(N)=O)c(NC3CCOCC3)c2)c2c1C(=O)CC(C)(C)C2 [Example 50, 2-fluoro-6-(tetrahydro-2H-pyran-4-ylamino)-4-(3,6,6-trimethyl-4-oxo-4,5,6,7-tetrahydro-1H-indazol-1-yl)benzamide] | – | – | bioavailability [1]: > 40% |
| C#CCN1CCC[C@H](Nc2cc(-n3nc(C(F)(F)F)c4c3CC(C)(C)CC4=O)ccc2C(N)=O)C1 [Example 121, (S)-4-(6,6-dimethyl-4-oxo-3-(trifluoromethyl)-4,5,6,7-tetrahydro-1H-indazol-1-yl)-2-(1-(prop-2-ynyl)piperidin-3-ylamino)benzamide] | – | – | solubility (Aqueous solubility): > 10000 µg/mL |
| CC1(C)CC(=O)c2c(C(F)(F)F)nn(-c3ccc(C(N)=O)c(NC4CCC4)c3)c2C1 [Example 148, 2-(cyclobutylamino)-4-(6,6-dimethyl-4-oxo-3-(trifluoromethyl)-4,5,6,7-tetrahydro-1H-indazol-1-yl)benzamide] | – | – | times more active in PC-3 cell line (PC-3 cell line; vs open chain butyl or alkyl analogs containing no oxygen): 20-100 times |
| CC1(C)CC(=O)c2c(C(F)(F)F)nn(-c3ccc(C(N)=O)c(N[C@H]4CCCC[C@@H]4O)c3)c2C1 [Example 172, 4-(6,6-dimethyl-4-oxo-3-(trifluoromethyl)-4,5,6,7-tetrahydro-1H-indazol-1-yl)-2-((1S,2S)-2-hydroxycyclohexylamino)benzamide] | – | – | times more potent in PC-3 cell line (PC-3 cell line; vs cyclohexyl analogs not substituted with an oxygen atom): 20-50 times |
| CCc1nn(-c2ccc(C(N)=O)c(N[C@H]3CC[C@H](O)CC3)c2F)c2c1C(=O)CC(C)(C)C2 [Example 51, 4-(3-ethyl-6,6-dimethyl-4-oxo-4,5,6,7-tetrahydro-1H-indazol-1-yl)-3-fluoro-2-(trans-4-hydroxycyclohexylamino)benzamide] | < 0.5 | +++ | – |
| CCc1nn(-c2ccc(C(N)=O)c3[nH]c(C)nc23)c2c1C(=O)CC(C)(C)C2 [Example 186, 4-(3-ethyl-6,6-dimethyl-4-oxo-4,5,6,7-tetrahydro-1H-indazol-1-yl)-2-methyl-1H-benzo[d]imidazole-7-carboxamide] | 5 to 50 | ++ | – |
| CCc1nn(-c2ccc(C(N)=O)c(N[C@H]3CCC[C@@H]3O)c2)c2c1C(=O)CC(C)(C)C2 [Example 180, 4-(3-ethyl-6,6-dimethyl-4-oxo-4,5,6,7-tetrahydro-1H-indazol-1-yl)-2-((1S,2S)-2-hydroxycyclopentylamino)benzamide] | < 0.5 | +++ | – |
| CCc1nn(-c2cc(F)c(C(N)=O)c(NCC(OC)OC)c2)c2c1C(=O)CC(C)(C)C2 [Example 97, 2-(2,2-dimethoxyethylamino)-4-(3-ethyl-6,6-dimethyl-4-oxo-4,5,6,7-tetrahydro-1H-indazol-1-yl)-6-fluorobenzamide] | < 0.5 | +++ | – |
| CC1(C)CC(=O)c2c(CC3CC3)nn(-c3cc(F)c(C(N)=O)c(NC4CCOCC4)c3)c2C1 [Example 48, 4-(3-(cyclopropylmethyl)-6,6-dimethyl-4-oxo-4,5,6,7-tetrahydro-1H-indazol-1-yl)-2-fluoro-6-(tetrahydro-2H-pyran-4-ylamino)benzamide] | – | – | times more potent against NCl/ADR-RES cell line (NCl/ADR-RES cell line): 3-10 times; times more potent against MES-SA/Dx5 (MDR+) cell line [3]: 4-6 times |
| C#CCN1CCC(Nc2cc(-n3nc(C(F)F)c4c3CC(C)(C)CC4=O)ccc2C(N)=O)CC1 [Example 106, 4-(3-(difluoromethyl)-6,6-dimethyl-4-oxo-4,5,6,7-tetrahydro-1H-indazol-1-yl)-2-(1-(prop-2-ynyl)piperidin-4-ylamino)benzamide] | – | – | inhibition of PC-3 cell line growth, times more (PC-3 cell line; vs compounds lacking a basic nitrogen or amino group at R6): 5-10 times |
| CC1(C)CC(=O)c2c(C(F)(F)F)nn(-c3ccc(C(N)=O)c(NCCSc4ncccn4)c3)c2C1 [Example 124, 4-(6,6-dimethyl-4-oxo-3-(trifluoromethyl)-4,5,6,7-tetrahydro-1H-indazol-1-yl)-2-(2-(pyrimidin-2-ylthio)ethylamino)benzamide] | 0.5 to 5 | – | – |
| CC1(C)CC(=O)c2c(CC3CC3)nn(-c3ccc(C(N)=O)c(NC4CCOCC4)c3)c2C1 [Example 157, 4-(3-(cyclopropylmethyl)-6,6-dimethyl-4-oxo-4,5,6,7-tetrahydro-1H-indazol-1-yl)-2-(tetrahydro-2H-pyran-4-ylamino)benzamide] | < 0.5 | +++ | – |
| CCc1nn(-c2cc(F)c(C(N)=O)c(NC3CC=CC3)c2)c2c1C(=O)CC(C)(C)C2 [Example 89, 2-(cyclopent-3-enylamino)-4-(3-ethyl-6,6-dimethyl-4-oxo-4,5,6,7-tetrahydro-1H-indazol-1-yl)-6-fluorobenzamide] | < 0.5 | +++ | – |
| CC1(C)CC(=O)c2c(C(F)(F)F)nn(-c3ccc(C(N)=O)c(N[C@@H]4CCCC[C@H]4N)c3)c2C1 [Example 119, 2-((1R,2R)-2-aminocyclohexylamino)-4-(6,6-dimethyl-4-oxo-3-(trifluoromethyl)-4,5,6,7-tetrahydro-1H-indazol-1-yl)benzamide] | < 0.5 | +++ | – |
| CC(C)(C)CN[C@H]1CC[C@H](Nc2cc(-n3nc(C(F)(F)F)c4c3CC(C)(C)CC4=O)ccc2C(N)=O)CC1 [Example 140, 4-(6,6-dimethyl-4-oxo-3-(trifluoromethyl)-4,5,6,7-tetrahydro-1H-indazol-1-yl)-2-(trans-4-(neopentylamino)cyclohexylamino)benzamide] | < 0.5 | +++ | – |
| Cc1nn(-c2ccc(C(N)=O)c(N[C@H]3CCOC3)c2)c2c1C(=O)CC(C)(C)C2 [Example 181, (S)-2-(tetrahydrofuran-3-ylamino)-4-(3,6,6-trimethyl-4-oxo-4,5,6,7-tetrahydro-1H-indazol-1-yl)benzamide] | – | – | times more active in PC-3 cell line (PC-3 cell line; vs non-oxygen containing cyclopentyl analogs): 20-50 times |
| C[C@H](O)CNc1cc(-n2nc(C(F)(F)F)c3c2CC(C)(C)CC3=O)ccc1C(N)=O [Example 165, (S)-4-(6,6-dimethyl-4-oxo-3-(trifluoromethyl)-4,5,6,7-tetrahydro-1H-indazol-1-yl)-2-(2-hydroxypropylamino)benzamide] | 0.5 to 5 | +++ | – |

Source: patent publication US20080269193A1, “Tetrahydroindole and Tetrahydroindazole Derivatives” (priority 2007, published 2008)
